Data reported in ChEMBL document CHEMBL1153520, “A multivalent approach to the design and discovery of orally efficacious 5-HT4 receptor agonists” (J Med Chem, 2009).
pEC50, pKi: −log10 of the molar value.

How the values were obtained:
[1] = molecular target: T1, 5-hydroxytryptamine receptor 4 (Homo sapiens, UniProt Q13639); test: Intrinsic activity at human 5HT4C receptor expressed in HEK293 cells assessed as accumulation of cAMP by flash plate adenylyl cyclase activation assay relative to serotonin; assay type: functional, cell-based
T1 sequence (Q13639 whole entry): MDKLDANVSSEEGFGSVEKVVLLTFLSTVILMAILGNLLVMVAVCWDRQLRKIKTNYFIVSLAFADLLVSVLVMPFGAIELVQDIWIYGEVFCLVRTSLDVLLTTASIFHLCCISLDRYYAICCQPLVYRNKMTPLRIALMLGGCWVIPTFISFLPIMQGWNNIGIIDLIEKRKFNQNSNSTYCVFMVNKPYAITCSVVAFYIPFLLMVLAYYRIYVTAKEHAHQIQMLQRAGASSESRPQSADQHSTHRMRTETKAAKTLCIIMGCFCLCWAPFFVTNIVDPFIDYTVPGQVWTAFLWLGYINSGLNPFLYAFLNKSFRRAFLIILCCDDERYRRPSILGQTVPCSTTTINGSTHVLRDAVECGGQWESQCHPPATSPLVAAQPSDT

[2] = molecular target: T1, 5-hydroxytryptamine receptor 4; test: Displacement of [H]GR-113808 from human 5HT4C receptor expressed in HEK293 cells by liquid scintillation counting; assay type: cell-based
[3] = molecular target: T1, 5-hydroxytryptamine receptor 4; test: Agonist activity at human 5HT4C receptor expressed in HEK293 cells assessed as accumulation of cAMP by flash plate adenylyl cyclase activation assay; assay type: functional, cell-based
Homo sapiens = species on record: Homo sapiens; test: Selectivity ratio of Ki for human 5HT3A receptor to Ki for human 5HT4C receptor

Row | SMILES | Intrinsic activity [1] | pKi [2] | pEC50 [3] | Ratio Ki (Homo sapiens)
1 | COc1cc(N)c(Cl)cc1C(=O)NC1CCN(CCO)CC1 | > 100% | 6.70 | 7.20 | 1.9
2 | COc1cc(N)c(Cl)cc1C(=O)NCCN1CCNCC1 | > 100% | 5.90 | 6.30 | 1.1
3 | CC(C)n1c(=O)c(C(=O)N[C@H]2C[C@H]3CC[C@@H](C2)N3CCCCCS(=O)(=O)O)cc2ccccc21 | > 100% | 5.80 | 7.90 | 21
4 | CC(C)n1c(=O)c(C(=O)N[C@H]2C[C@H]3CC[C@@H](C2)N3CCCCCCCCS(=O)(=O)O)cc2ccccc21 | > 100% | 7.20 | 7.70 | 230
5 | CC(C)n1c(=O)c(C(=O)N[C@H]2C[C@H]3CC[C@@H](C2)N3CCCCCO)cc2ccccc21 | > 100% | 7.20 | 7.60 | 460
6 | CC(C)n1c(=O)c(C(=O)N[C@H]2C[C@H]3CC[C@@H](C2)N3CCCCCN(C)CCc2c[nH]c3ccccc23)cc2ccccc21 | > 100% | 8.50 | 9.20 | 6000
7 | COc1cc(N)c(Cl)cc1C(=O)NC1CCN(CCN(C)CCc2c[nH]c3ccccc23)CC1 | > 100% | 7.40 | 7.80 | 290
8 | COc1cc(N)c(Cl)cc1C(=O)NC1CCN(CCCCCCCCN2C(=O)c3ccccc3C2=O)CC1 | 89% | 7.40 | 8.50 | 40
9 | CC(C)n1c(=O)n(C(=O)NCCN2CCNCC2)c2ccccc21 | > 100% | 6.90 | 8.10 | 1
10 | COc1cc(N)c(Cl)cc1C(=O)NC1CCN(CCN2C(=O)c3ccccc3C2=O)CC1 | 94% | 5.10 | 6.20 | 13
11 | CC(C)n1c(=O)c(C(=O)N[C@H]2C[C@H]3CC[C@@H](C2)N3CCN2C(=O)c3ccccc3C2=O)cc2ccccc21 | > 100% | 6.00 | 7.10 | 55
12 | COc1cc(N)c(Cl)cc1C(=O)NC1CCN(CCCCCCCCN2CCN(S(C)(=O)=O)CC2)CC1 | > 100% | 7.80 | 7.40 | 330
13 | COc1cc(N)c(Cl)cc1C(=O)NC1CCN(CCCCCCCCN2CCCCC2)CC1 | > 100% | 8.50 | 8.50 | 2000
14 | CC(C)n1c(=O)c(C(=O)NC2CCNCC2)cc2ccccc21 | > 100% | 5.50 | 6.80 | 0.14
15 | CC(C)n1c(=O)c(C(=O)N[C@H]2C[C@H]3CC[C@@H](C2)N3)cc2ccccc21 | > 100% | 6.60 | 7.90 | 0.85
16 | COc1cc(N)c(Cl)cc1C(=O)NC1CCNCC1 | > 100% | 5.80 | 6.40 | 0.095
17 | CC(C)n1c(=O)c(C(=O)N[C@H]2C[C@H]3CC[C@@H](C2)N3CCCCCCCCN2C(=O)c3ccccc3C2=O)cc2ccccc21 | > 100% | 7.50 | 7.30 | 120
18 | COc1cc(N)c(Cl)cc1C(=O)NCC1CCNCC1 | 81% | 6.50 | 6.40 | 0.12
19 | CC(C)n1c(=O)n(C(=O)N[C@H]2C[C@H]3CC[C@@H](C2)N3)c2ccccc21 | > 100% | 6.50 | 7.80 | 0.013

Row | SMILES | Intrinsic activity [1] | pKi [2] | pEC50 [3] | Ratio Ki (Homo sapiens)
20 | CC(C)n1c(=O)c(C(=O)N[C@H]2C[C@H]3CC[C@@H](C2)N3CCN2CCCCC2)cc2ccccc21 | > 100% | 7.10 | 8.00 | 720
21 | CC(C)n1c(=O)c(C(=O)N[C@H]2C[C@H]3CC[C@@H](C2)N3CCS(=O)(=O)O)cc2ccccc21 | > 100% | 6.00 | 8.20 | 49
22 | COc1cc(N)c(Cl)cc1C(=O)NC1CCN(CCCCCN2CCCCC2)CC1 | > 100% | 8.00 | 8.30 | 990
23 | CC(C)n1c(=O)c(C(=O)N[C@H]2C[C@H]3CC[C@@H](C2)N3CCN(C)CCc2c[nH]c3ccccc23)cc2ccccc21 | 92% | 7.40 | 8.90 | 480
24 | CC(C)n1c(=O)c(C(=O)N[C@H]2C[C@H]3CC[C@@H](C2)N3CCN2CCN(S(C)(=O)=O)CC2)cc2ccccc21 | > 100% | 7.20 | 8.20 | 450
25 | COc1cc(N)c(Cl)cc1C(=O)NC1CCN(CCN2CCCCC2)CC1 | > 100% | 6.60 | 7.00 | 3.9
26 | CC(C)n1c(=O)c(C(=O)N[C@H]2C[C@H]3CC[C@@H](C2)N3CCCCCCCCN2CCCCC2)cc2ccccc21 | 99% | 8.50 | 8.90 | 9900
27 | COc1cc(N)c(Cl)cc1C(=O)NC1CCN(CCCCCCCCS(=O)(=O)O)CC1 | > 100% | 4.80 | 6.00 | 4.3
28 | CC(C)n1c(=O)c(C(=O)N[C@H]2C[C@H]3CC[C@@H](C2)N3CCCCCN2CCCCC2)cc2ccccc21 | > 100% | 8.30 | 9.00 | 8100
29 | CCN1[C@@H]2CC[C@H]1C[C@@H](NC(=O)c1cc3ccccc3n(C(C)C)c1=O)C2 | 96% | 6.90 | 7.50 | 19
30 | COc1cc(N)c(Cl)cc1C(=O)NC1CCN(CCN2CCN(S(C)(=O)=O)CC2)CC1 | 97% | 6.90 | 7.70 | 21
31 | CC(C)n1c(=O)c(C(=O)N[C@H]2C[C@H]3CC[C@@H](C2)N3CCCCCCCCO)cc2ccccc21 | > 100% | 7.30 | 7.80 | 1100
32 | COc1cc(N)c(Cl)cc1C(=O)NC1CCN(CCCCCN2C(=O)c3ccccc3C2=O)CC1 | > 100% | 7.70 | 8.30 | 120
33 | COc1cc(N)c(Cl)cc1C(=O)NC1CCN(CCCCCCCCN(C)CCc2c[nH]c3ccccc23)CC1 | > 100% | 8.90 | 9.10 | 2800
34 | COc1ccc2[nH]cc(C(=O)NCCN3CCNCC3)c2c1 | 0% | 6.50 |  | 25
35 | COc1cc(N)c(Cl)cc1C(=O)N[C@H]1C[C@H]2CC[C@@H](C1)N2 | 57% | 6.80 | 7.00 | 0.2
36 | CC(C)n1c(=O)c(C(=O)N[C@H]2C[C@H]3CC[C@@H](C2)N3CCCCCCCCN(C)CCc2c[nH]c3ccccc23)cc2ccccc21 | > 100% | 8.50 | 9.00 | 2300
37 | COc1ccc2[nH]cc(C(=O)NC3CCNCC3)c2c1 | 0% | 5.50 |  | 6.7
38 | CC(C)n1nc(C(=O)NCC2CCNCC2)c2ccccc21 | 0% | 8.10 |  | 3
